Source: the supplement of paper PMC11208160

Experiment: recombinant UMI read abundance after kanamycin selection (control-corrected) (log10(CPM+1)); higher = more efficient recombination; extreme values may be limits of the assay; sequences stand for … in AGTGCAGAGAAAATCGGCCAGTTTTCTCTGCCTGCAGTCCGCATGCCGTGGGACCCCTTGGGTTCTAACCTGTTGCCTAGATTTATGCAGCGGACTGCCTTTCTCCCAAAGTGATAAACCGG…AGGTTGGTTTCACT; site = the 11-nt donor
In short: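 The measure is log10(CPM+1) for recombinant UMIs. These were PCR-amplified across the donor–target junction and sequenced after Escherichia coli carrying a donor and donor-binding-loop pair library and a target plasmid with T7-inducible IS621 bridge recombinase was plated on IPTG (0.07 mM) plus kanamycin or unselected. CPM were averaged over two replicates and scaled by control-derived factors.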
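Further: IS621 bridge recombinase in Escherichia coli cells against a fixed T5 target plasmid.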

| Sequence | recombinant UMI read abundance (log10) |
| --- | --- |
| GGCACGTCATGGACCGGTTTTCCCGGTAATCCGTATTTGTT (site GGAACGTCTAA) | 0.027 |
| GGCACGTCATGGACCGGTTTTCCCGGTAATCCGTATTTGTT (site GGCACGTCTAA) | 0.595 |
| GGCACGTCATGGACCGGTTTTCCCGGTAATCCGTATTTGTT (site GGGACGTCTAA) | 0.00471 |
| GGCACGTCATGGACCGGTTTTCCCGGTAATCCGTATTTGTT (site GGTACGTCTAA) | 0.0192 |
| GGCAGAGCATGGACCGGTTTTCCCGGTAATCCGTATTTGAG (site GGCAGAGCTCT) | 1.67 |
| GGCCAAACATGGACCGGTTTTCCCGGTAATCCGTATTTGAC (site GGCCAAACTGT) | 1.73 |
| GGCCACCCATGGACCGGTTTTCCCGGTAATCCGTATTTGTA (site GGCCACCCTAA) | 0.0187 |
| GGCCACCCATGGACCGGTTTTCCCGGTAATCCGTATTTGTA (site GGCCACCCTCA) | 0.014 |
| GGCCACCCATGGACCGGTTTTCCCGGTAATCCGTATTTGTA (site GGCCACCCTGA) | 0 |
| GGCCACCCATGGACCGGTTTTCCCGGTAATCCGTATTTGTA (site GGCCACCCTTA) | 0.081 |
| GGCCACCCATGGACCGGTTTTCCCGGTAATCCGTATTTGTG (site GGCCACCCTAA) | 0.00884 |
| GGCCACCCATGGACCGGTTTTCCCGGTAATCCGTATTTGTG (site GGCCACCCTCA) | 0.00742 |
| GGCCACCCATGGACCGGTTTTCCCGGTAATCCGTATTTGTG (site GGCCACCCTGA) | 0 |
| GGCCACCCATGGACCGGTTTTCCCGGTAATCCGTATTTGTG (site GGCCACCCTTA) | 0.0265 |
| GGCCACGCATGGACCGGTTTTCCCGGTAATCCGTATTTGTT (site GGCCACACTAA) | 0.148 |
| GGCCACGCATGGACCGGTTTTCCCGGTAATCCGTATTTGTT (site GGCCACCCTAA) | 0.023 |
| GGCCACGCATGGACCGGTTTTCCCGGTAATCCGTATTTGTT (site GGCCACGCTAA) | 0.96 |
| GGCCACGCATGGACCGGTTTTCCCGGTAATCCGTATTTGTT (site GGCCACTCTAA) | 0.0156 |
| GGCCATCCATGGACCGGTTTTCCCGGTAATCCGTATTTGAA (site GGCAATCCTTT) | 0.00447 |
| GGCCATCCATGGACCGGTTTTCCCGGTAATCCGTATTTGAA (site GGCCATCCTTT) | 0.00888 |
| GGCCATCCATGGACCGGTTTTCCCGGTAATCCGTATTTGAA (site GGCGATCCTTT) | 0.00507 |
| GGCCATCCATGGACCGGTTTTCCCGGTAATCCGTATTTGAA (site GGCTATCCTTT) | 0.0589 |
| GGCCCCCCATGGACCGGTTTTCCCGGTAATCCGTATTTGTT (site GGCCACCCTAA) | 0.0272 |
| GGCCCCCCATGGACCGGTTTTCCCGGTAATCCGTATTTGTT (site GGCCCCCCTAA) | 0.0352 |
| GGCCCCCCATGGACCGGTTTTCCCGGTAATCCGTATTTGTT (site GGCCGCCCTAA) | 0.0281 |

| Sequence | recombinant UMI read abundance (log10) |
| --- | --- |
| GGCCCCCCATGGACCGGTTTTCCCGGTAATCCGTATTTGTT (site GGCCTCCCTAA) | 0.0156 |
| GGCCTAGCATGGACCGGTTTTCCCGGTAATCCGTATTTGTT (site AGCCTAGCTAA) | 0 |
| GGCCTAGCATGGACCGGTTTTCCCGGTAATCCGTATTTGTT (site CGCCTAGCTAA) | 0.0146 |
| GGCCTAGCATGGACCGGTTTTCCCGGTAATCCGTATTTGTT (site GGCCTAGCTAA) | 0.00233 |
| GGCCTAGCATGGACCGGTTTTCCCGGTAATCCGTATTTGTT (site TGCCTAGCTAA) | 0.0108 |
| GGCGATACATGGACCGGTTTTCCCGGTAATCCGTATTTGCT (site GGCGATACTAG) | 1.5 |
| GGCGCTACATGGACCGGTTTTCCCGGTAATCCGTATTTGAT (site GGCGCTACTAT) | 0.866 |
| GGCGGCTCATGGACCGGTTTTCCCGGTAATCCGTATTTGTG (site GGCGGCTCTCA) | 1.23 |
| GGCGTGGCATGGACCGGTTTTCCCGGTAATCCGTATTTGGT (site GGAGTGGCTAC) | 0.00572 |
| GGCGTGGCATGGACCGGTTTTCCCGGTAATCCGTATTTGGT (site GGCGTGGCTAC) | 0.511 |
| GGCGTGGCATGGACCGGTTTTCCCGGTAATCCGTATTTGGT (site GGGGTGGCTAC) | 0.00519 |
| GGCGTGGCATGGACCGGTTTTCCCGGTAATCCGTATTTGGT (site GGTGTGGCTAC) | 0.00854 |
| GGCTAGACATGGACCGGTTTTCCCGGTAATCCGTATTTGCC (site GGATAGACTGG) | 0 |
| GGCTAGACATGGACCGGTTTTCCCGGTAATCCGTATTTGCC (site GGCTAGACTGG) | 0.563 |
| GGCTAGACATGGACCGGTTTTCCCGGTAATCCGTATTTGCC (site GGGTAGACTGG) | 0 |
| GGCTAGACATGGACCGGTTTTCCCGGTAATCCGTATTTGCC (site GGTTAGACTGG) | 0 |
| GGCTAGACATGGACCGGTTTTCCCGGTAATCCGTATTTGTG (site GGCTAGACTCA) | 0.659 |
| GGCTATCCATGGACCGGTTTTCCCGGTAATCCGTATTTGAA (site GGCAATCCTTT) | 0.00767 |
| GGCTATCCATGGACCGGTTTTCCCGGTAATCCGTATTTGAA (site GGCCATCCTTT) | 0.0272 |
| GGCTATCCATGGACCGGTTTTCCCGGTAATCCGTATTTGAA (site GGCGATCCTTT) | 0.0136 |
| GGCTATCCATGGACCGGTTTTCCCGGTAATCCGTATTTGAA (site GGCTATCCTTT) | 0.133 |
| GGCTCCTCATGGACCGGTTTTCCCGGTAATCCGTATTTGTA (site GGCTCCTCTTA) | 1.84 |
| GGCTGGCCATGGACCGGTTTTCCCGGTAATCCGTATTTGAT (site GGCTGGCCTAT) | 0.0261 |
| GGGAAAACATGGACCGGTTTTCCCGGTAATCCGTATTTGCT (site GAGAAAACTAG) | 0 |
| GGGAAAACATGGACCGGTTTTCCCGGTAATCCGTATTTGCT (site GCGAAAACTAG) | 0.0308 |

| Sequence | recombinant UMI read abundance (log10) |
| --- | --- |
| GGGAAAACATGGACCGGTTTTCCCGGTAATCCGTATTTGCT (site GGGAAAACTAG) | 0 |
| GGGAAAACATGGACCGGTTTTCCCGGTAATCCGTATTTGCT (site GTGAAAACTAG) | 0 |
| GGGAAGACATGGACCGGTTTTCCCGGTAATCCGTATTTGCA (site AGGAAGACTTG) | 0.813 |
| GGGAAGACATGGACCGGTTTTCCCGGTAATCCGTATTTGCA (site CGGAAGACTTG) | 0 |
| GGGAAGACATGGACCGGTTTTCCCGGTAATCCGTATTTGCA (site GGGAAGACTTG) | 1.96 |
| GGGAAGACATGGACCGGTTTTCCCGGTAATCCGTATTTGCA (site TGGAAGACTTG) | 1.19 |
| GGGAAGACATGGACCGGTTTTCCCGGTAATCCGTATTTGCT (site AGGAAGACTTG) | 0 |
| GGGAAGACATGGACCGGTTTTCCCGGTAATCCGTATTTGCT (site GGGAAGACTAG) | 1.69 |
| GGGAATACATGGACCGGTTTTCCCGGTAATCCGTATTTGAG (site GGGAATACTCT) | 1.35 |
| GGGAATCCATGGACCGGTTTTCCCGGTAATCCGTATTTGTC (site CGGAATCCTAA) | 0.00512 |
| GGGAATCCATGGACCGGTTTTCCCGGTAATCCGTATTTGTC (site GGGAATCCTGA) | 0 |
| GGGACAACATGGACCGGTTTTCCCGGTAATCCGTATTTGTG (site GGGACAACTCA) | 0.439 |
| GGGACATCATGGACCGGTTTTCCCGGTAATCCGTATTTGGA (site GGGACATCTTC) | 1.52 |
| GGGACGTCATGGACCGGTTTTCCCGGTAATCCGTATTTGTG (site GGGACGTCTCA) | 2.05 |
| GGGCAATCATGGACCGGTTTTCCCGGTAATCCGTATTTGTC (site GGGCAATCTGA) | 2.8 |
| GGGCAATCATGGACCGGTTTTCCCGGTAATCCGTATTTGTG (site GGGCAATCTCA) | 1.92 |
| GGGCATGCATGGACCGGTTTTCCCGGTAATCCGTATTTGAG (site GGGCATGCTCT) | 1.57 |
| GGGCATGCATGGACCGGTTTTCCCGGTAATCCGTATTTGGT (site GAGCATGCTAC) | 0.336 |
| GGGCATGCATGGACCGGTTTTCCCGGTAATCCGTATTTGGT (site GCGCATGCTAC) | 0.0126 |
| GGGCATGCATGGACCGGTTTTCCCGGTAATCCGTATTTGGT (site GGGCATGCTAC) | 1.33 |
| GGGCATGCATGGACCGGTTTTCCCGGTAATCCGTATTTGGT (site GTGCATGCTAC) | 0.161 |
| GGGCCAACATGGACCGGTTTTCCCGGTAATCCGTATTTGTG (site GGGCCAACTCA) | 0 |
| GGGCCACCATGGACCGGTTTTCCCGGTAATCCGTATTTGCA (site GGGACACCTTG) | 0 |
| GGGCCACCATGGACCGGTTTTCCCGGTAATCCGTATTTGCA (site GGGCCACCTTG) | 0 |
| GGGCCACCATGGACCGGTTTTCCCGGTAATCCGTATTTGCA (site GGGGCACCTTG) | 0 |
